Key:
[1] = system: Pseudomonas aeruginosa strain PAO1; assay: nitrate dependent growth of PAO1 under anaerobic atmosphere; format: cell-based; conditions: for nitrate dependent growth: LB broth with nitrate, anaerobic atmosphere; for inhibition of growth: anaerobic
Procedure: FIG. 1. […] Pseudomonas aeruginosa strain PAO1 is capable of growing in the absence of oxygen using nitrate for respiration. […] The studies presented in FIG. 1 examine whether glutathione influences the growth of PAO1 either in the presence or absence of nitrate under either ambient (aerobic) or anaerobic atmospheres. […]
FIG. 4. […] To examine this possibility, S-nitrosoglutathione (Sigma) was tested for influence on growth of PAO1 in TSBN (1% KNO3) with and without 6.4 mM glutathione.
(§1) FIG. 7. […] The next series of experiments was designed to determine if there were any influences of ascorbate on glutathione potentiation of the growth inhibition of the RNI (FIGS. 7, 8 and 9).

[2] = target: CB2 receptor (Homo sapiens, UniProt P34972); conditions: cited from earlier work
Sequence of CB2 receptor (P34972 whole entry): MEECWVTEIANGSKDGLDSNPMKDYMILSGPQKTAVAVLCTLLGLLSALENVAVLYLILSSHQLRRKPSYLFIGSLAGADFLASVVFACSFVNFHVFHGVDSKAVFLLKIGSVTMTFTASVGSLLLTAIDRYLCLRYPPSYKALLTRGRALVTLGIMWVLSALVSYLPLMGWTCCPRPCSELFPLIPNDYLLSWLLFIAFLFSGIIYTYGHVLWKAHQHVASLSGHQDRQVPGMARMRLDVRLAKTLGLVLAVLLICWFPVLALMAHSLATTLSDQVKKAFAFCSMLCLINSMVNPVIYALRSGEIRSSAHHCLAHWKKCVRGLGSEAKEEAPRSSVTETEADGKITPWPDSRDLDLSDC

[3] = system: Pseudomonas aeruginosa strain PAO1; assay: aerobic growth of PAO1 in broth in ambient atmosphere; format: cell-based; conditions: for effects on aerobic growth attained by 17 h, single components: each alone: KNO2 to 3.5 mM, glutathione to 5 mM, ascorbate to 2.1 mM
Description: FIG. 1. […] Pseudomonas aeruginosa strain PAO1 is capable of growing in the absence of oxygen using nitrate for respiration. […] The studies presented in FIG. 1 examine whether glutathione influences the growth of PAO1 either in the presence or absence of nitrate under either ambient (aerobic) or anaerobic atmospheres.
(§2) FIG. 2. […] To test this possibility, reduced glutathione was titrated vs. increasing concentrations of KNO2 in either trypticase soy broth (TSB) in ambient atmosphere or in trypticase soy broth with nitrate (TSBN) (1% KNO3) under anaerobic atmosphere.
(§3) FIG. 3. […] These studies examined the question of the importance of the redox state of glutathione to its contributions to the inhibition by RNI and to the blocking of the glucose oxidase antimicrobial effects. Glutathione in either its reduced (GSH) or oxidized (GSSG) form was titrated in the presence or absence of 14 mM nitrite in TSB and PAO1 was grown in ambient atmosphere.
FIG. 6. […] If NO reacts with glutathione to generate nitrosoglutathione then gassing with NO in the presence of glutathione may be expected to yield greater activity than gassing first and then adding glutathione. To test this effect, LB broth was either pre-gassed with NO followed by titration of GSH or the LB broth aliquots containing various concentrations of GSH were gassed. Titration of NO was accomplished by varying the gassing times of the LB broth.
as §1
FIG. 8. […] Ascorbate was titrated over a checkerboard titration of glutathione and KNO2 in LB broth.
FIG. 9. […] In these experiments, varying concentrations of NO were achieved again by varying the gassing time (10, 15, 30 or 45 min) with 2.3% NO in N2 either in the presence (NO-GSH) or absence (NO-LB) of varying concentrations of glutathione. Glutathione was added to NO-LB in varying concentrations (NO-LB+GSH).

[4] = system: P. aeruginosa clinical isolate (C3873M)
Procedure: (§4) FIGS. 10A-B. Influences of bicarbonate on alginate production by different strains of P. aeruginosa under a 5% CO2 atmosphere. Alginate production of selected strains of P. aeruginosa surface grown in a CO2 incubator was quantitatively determined by a colorimetric assay. […] These three strains were then tested for their ability to make alginate under an atmosphere of 5% CO2 with increasing concentrations of NaHCO3(FIG. 10B).

[5] = system: PAO1; conditions: 5% CO2; increasing concentrations of NaHCO3
Procedure: as §4

[6] = system: Pa Mucoid laboratory derived from PAO1; conditions: 5% CO2; increasing concentrations of NaHCO3
Procedure: as §4

[7] = system: Pseudomonas aeruginosa strain PAO1; assay: glucose oxidase / H2O2 mediated growth inhibition of PAO1; format: cell-based
Description: as §2, §3

[8] = absence of NO, glutathione and ascorbate concentrations and combinations of the study

For `N[C@@H](CCC(=O)N[C@@H](CSN=O)C(=O)NCC(=O)O)C(=O)O` [GSNO, S-nitrosoglutathione, reference compound], the “inhibition of growth, bacterial density (A=650 nm) at 18 h” value ([1]; GSNO titrated, TSBN (1% KNO3), without glutathione) was “concentration dependent inhibition”.
In the case of `C=C1CC[C@@H]2[C@@H](C1)c1c(OC)cc(C(C)(C)CCCCCC)cc1OC2(C)C` [L-759,656], the CB1/CB2 binding ratio [2] is given as greater than 1000.
In the case of `[N]=O` [NO, nitric oxide, reference compound], the “inhibition of aerobic growth by NO” value ([3]; LB broth gassed with NO, absence of glutathione) is reported as “no discernible inhibition”.
For `O=C1O[C@H]([C@@H](O)CO)C(O)=C1O` [ascorbate, ascorbic acid], the “inhibition of growth in ambient atmosphere” value ([3]; 0.2 mM ascorbate with 7.5 mM glutathione, presence of nitrate) was “profound inhibition of growth”, the “inhibition of aerobic growth” value ([3]; 2.1 mM ascorbate with 7.5 mM glutathione, absence of nitrate) was “total inhibition” and the “inhibitory effects on aerobic growth” value [3, 8] was “no inhibitory effects”. For the same compound, the “effect on inhibition by KNO2 with glutathione” value ([3]; ascorbate added to KNO2 and glutathione, LB broth) was “enhanced”, the “effect on aerobic growth attained by 17 h” value ([3]; ascorbate added to either glutathione or KNO2, LB broth) was “no discernible effect” and the “enhancement of inhibition of aerobic growth” value ([3]; ascorbate titrated, 15 min delivery of NO, 2.5 mM GSH) was “concentration dependent ascorbate enhancement of inhibition”. For the same compound, the “effects on aerobic growth attained by 17 h, single components” value (shortened to “effects on aerobic growth attained”) ([3]; LB broth) was “neither KNO2 to 3.5 mM, glutathione to 5 mM nor ascorbate to 2.1 mM had discernible effects”, the “effect on glutathione reduction of aerobic growth” value ([3]; increasing concentrations of ascorbic acid added to glutathione, LB broth) was “further enhanced” and the “decrease in nitrate-dependent growth” value ([1]; increasing ascorbate in the presence of 2.5 mM glutathione) was “more pronounced”. For the same compound, the nitrate-dependent growth ([1]; increasing concentrations of ascorbate, absence of glutathione) was “dose dependent decrease in nitrate-dependent growth”.
With `O=C(O)O` [bicarbonate, NaHCO3] the alginate production ([4]; 5% CO2, increasing concentrations of NaHCO3) was “inhibited”, the “alginate production associated with the mucoidy phenotype of P. aeruginosa” value ([4]; preliminary studies) was “inhibits the alginate production” and the alginate production [5] was “failed to make alginate”. For the same compound, the alginate production [6] was “significantly enhanced”.
In the case of `N[C@@H](CCC(=O)N[C@@H](CS)C(=O)NCC(=O)O)C(=O)O` [glutathione, N—(N-L-γ-glutamyl-L-cysteinyl)glycine], the “inhibition of aerobic growth, glutathione with NO” value (from here on “inhibition … with NO”) ([3]; 2.5 mM glutathione, NO titrated by gassing time, LB broth) is reported as “dose dependent NO inhibition of growth”, the “inhibition of aerobic growth” value ([3]; 5 mM glutathione and ascorbate, presence versus absence of nitrate) is reported as “greater inhibition of aerobic growth” and the “inhibition … with NO” value ([3]; 5 mM glutathione, lowest concentration of NO (10 minutes gassing time), LB broth) is reported as “total inhibition”. The “inhibition … with NO” value ([3]; 5 mM glutathione, lowest concentration of NO, regardless of order of addition) was “total inhibition of growth”, the “inhibition of growth, glutathione with nitrite” value ([3]; 6.4 mM GSH and 14 mM KNO2, TSB, ambient atmosphere) was “significant inhibition” and the “growth yield at 14 h” value ([3]; 7.5 mM glutathione, LB broth with or without 1% nitrate, aerobic) was “reduced growth yield”. For the same compound, the “inhibition of growth, glutathione with nitrite” value ([3]; 12.8 mM GSH and 7 mM KNO2, TSB, ambient atmosphere) was “significant inhibition”, the “inhibition of PAO1 growth in the presence of nitrite” value ([3]; 14 mM nitrite, TSB, ambient atmosphere, molar equivalency) was “inhibition of PAO1 growth” and the “enhancement of NO gas inhibition of aerobic growth” value ([3]; 0.5 relative concentration of NO, TSB) was “dose dependent enhancement of inhibition”. The “inhibitory effects on aerobic growth” value [3, 8] was “no inhibitory effects”, the “effects on aerobic growth attained” value ([3]; LB broth) was “neither KNO2 to 3.5 mM, glutathione to 5 mM nor ascorbate to 2.1 mM had discernible effects” and the aerobic growth attained ([3]; glutathione titrated, LB broth) was “dose dependent reduction in the aerobic growth”. The “lowest glutathione concentration at which synergistic inhibition was evident” value ([3]; in the presence of 1.75 mM KNO2, ascorbate titrated, LB broth) was 2.5 mM, the “enhancement of NO gas inhibition of aerobic growth” value ([3]; lower NO concentrations, TSB) was “not at lower NO concentrations” and the “aerobic growth of P. aeruginosa” value ([3]; nitrite and nitric oxide in the presence of GSH) was “inhibit the aerobic growth of P. aeruginosa”. The growth yield ([3]; reduced glutathione titrated, TSB, absence of nitrite) was “slight, but significant, concentration-dependent increase in growth yield”, the “growth in an anaerobic atmosphere with nitrate” value ([1]; 2.5 mM and lower concentrations of glutathione, absence of ascorbate) was “permitted growth” and the nitrate dependent growth ([1]; 2.5 mM glutathione or less) was “no discernible effects”. For the same compound, the nitrate dependent growth ([1]; 5 mM glutathione) was “total inhibition”, the “effect on GSNO inhibition of growth, bacterial density (A=650 nm) at 18 h” value ([1]; 6.4 mM glutathione with GSNO, TSBN (1% KNO3)) was “significantly enhanced” and the nitrate dependent growth ([1]; 7.5 mM glutathione) was “total inhibition”. The inhibition of growth ([1]; increasing GSH with nitrite concentrations not totally inhibitory by themselves, TSBN) was “further inhibition”, the “use of nitrate, nitrite or nitric oxide for growth under anaerobic conditions” value ([1]; preliminary data, P. aeruginosa) was “limit the ability of P. aeruginosa to utilize nitrate, nitrite, or nitric oxide to grow under anaerobic conditions” and the “anti-pseudomonal activities of GSNO and other nitric oxide donors” value ([1]; presence of exogenous glutathione) was “potentiated”. The “growth inhibition of PAO1 by exogenous H2O2” value ([7]; 14 mM GSH) was “blocked”, the “protection from inhibition with the glucose oxidase system” value ([7]; TSB, ambient atmosphere) was “protected PAO1 from inhibition” and the “protection from the growth inhibiting effects of glucose oxidase” value ([7]; increasing concentration of GSH) was “protected PAO1”.
For `O=N[O-].[K+]` [nitrite, KNO2, reference compound], the “inhibitory effects on aerobic growth” value ([3]; KNO2 in the presence of glutathione, LB broth) was “concentration dependent inhibitory effects”, the “effects on aerobic growth attained” value ([3]; LB broth) was “neither KNO2 to 3.5 mM, glutathione to 5 mM nor ascorbate to 2.1 mM had discernible effects” and the “lowest KNO2 concentration at which synergistic inhibition was evident” value ([3]; in the presence of 5 mM glutathione, ascorbate titrated, LB broth) was 0.875 mM. For the same compound, the “inhibition of aerobic growth” value ([3]; nitrite to 14 mM, absence of glutathione, TSB) was “no discernible inhibition” and the inhibition of growth ([1]; KNO2 added, TSBN (1% KNO3), absence of glutathione) was “significant inhibition”.

— patent US12685755B2, “Methods and compositions for treating mucosal tissue disorders” (The University of North Carolina at Chapel Hill, priority 2012, dated 2026)
